Reference: ChEMBL document CHEMBL1201862, “PubChem BioAssay data set” (2004)
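96-well plates; 48 h exposure; 5 concentrations. Endpoints by linear interpolation between flanking doses. Not reached: highest tested concentration assigned. GI50 is the concentration that inhibits growth by half.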 The source made the active and inactive calls. No stated cut-off is given here; in the data, active = GI50 up to about 1.1 µM and inactive = higher.

What was measured:
Assay in all cases: growth of human tumour cells (NCI), 48 h
[1] = tested on: CAKI-1
[2] = tested on: LOX IMVI
[3] = tested on: DMS-114
[4] = tested on: OVCAR-5
[5] = tested on: UACC-62
[6] = tested on: SK-MEL-2
[7] = tested on: U-251
[8] = tested on: M19-MEL
[9] = tested on: SNB-78
[10] = tested on: SF-268
[11] = tested on: SW-620
[12] = tested on: 786-0
[13] = tested on: OVCAR-4
[14] = tested on: NCI-H460
[15] = tested on: RXF 393
[16] = tested on: MOLT-4
[17] = tested on: UACC-257
[18] = tested on: M14
[19] = tested on: NCI-H522
[20] = tested on: HCT-116
[21] = tested on: OVCAR-3
[22] = tested on: A498
[23] = tested on: DLD-1
[24] = tested on: SF-539
[25] = tested on: COLO 205
[26] = tested on: NCI-H23
[27] = tested on: NCI-H226
[28] = tested on: HCT-15
[29] = tested on: UO-31
[30] = tested on: HCC 2998
[31] = tested on: HOP-62
[32] = tested on: KM-20L2
[33] = tested on: K562
[34] = tested on: EKVX
[35] = tested on: IGROV-1
[36] = tested on: TK-10
[37] = tested on: KM12
[38] = tested on: HT-29
[39] = tested on: SK-MEL-28
[40] = tested on: SK-MEL-5
[41] = tested on: XF498
[42] = tested on: SR
[43] = tested on: SNB-19
[44] = tested on: DMS-273
[45] = tested on: SK-OV-3
[46] = tested on: OVCAR-8
[47] = tested on: SF-295
[48] = tested on: CCRF-CEM
[49] = tested on: A549
[50] = tested on: HOP-92
[51] = tested on: Malme-3M
[52] = tested on: SN12C
[53] = tested on: SNB-75
[54] = tested on: LXFL 529
[55] = tested on: ACHN
[56] = tested on: HL-60

O=C(/C=C/c1ccccc1)NC1C=Nc2ccc([N+](=O)[O-])cc2NC1=O (stereo unspecified) was tested, and the GI50 [1] was > 100 µM (inactive), the GI50 [2] was 22.7 µM (inactive) and the GI50 [3] was 15.8 µM (inactive). For the same compound, the GI50 [4] was 71.9 µM (inactive), the GI50 [5] was 44.1 µM (inactive) and the GI50 [6] was 25.7 µM (inactive). The GI50 [7] was > 100 µM (inactive), the GI50 [8] was 38.4 µM (inactive) and the GI50 [9] was > 100 µM (inactive). The GI50 [10] was > 100 µM (inactive), the GI50 [11] was > 100 µM (inactive) and the GI50 [12] was > 100 µM (inactive). The GI50 [13] was > 100 µM (inactive), the GI50 [14] was > 100 µM (inactive) and the GI50 [15] was > 100 µM (inactive). For the same compound, the GI50 [16] was 53.8 µM (inactive), the GI50 [17] was > 100 µM (inactive) and the GI50 [18] was 52.8 µM (inactive). For the same compound, the GI50 [19] was 6.01 µM (inactive), the GI50 [20] was 96.6 µM (inactive) and the GI50 [21] was 80.5 µM (inactive). For the same compound, the GI50 [22] was > 100 µM (inactive), the GI50 [23] was > 100 µM (inactive) and the GI50 [24] was > 100 µM (inactive). For the same compound, the GI50 [25] was 29 µM (inactive), the GI50 [26] was 76.4 µM (inactive) and the GI50 [27] was > 100 µM (inactive). The GI50 [28] was 23.2 µM, the GI50 [29] was 48.9 µM (inactive) and the GI50 [30] was 34.8 µM (inactive). The GI50 [31] was 84.3 µM (inactive), the GI50 [32] was 23.3 µM (inactive) and the GI50 [33] was 27 µM (inactive). For the same compound, the GI50 [34] was > 100 µM (inactive), the GI50 [35] was > 100 µM (inactive) and the GI50 [36] was > 100 µM (inactive). The GI50 [37] was 18.1 µM (inactive), the GI50 [38] was 73.1 µM (inactive) and the GI50 [39] was > 100 µM (inactive). The GI50 [40] was > 100 µM (inactive), the GI50 [41] was > 100 µM (inactive) and the GI50 [42] was > 100 µM (inactive). The GI50 [43] was > 100 µM (inactive), the GI50 [44] was 21.6 µM (inactive) and the GI50 [45] was > 100 µM (inactive). The GI50 [46] was > 100 µM (inactive), the GI50 [47] was 30.3 µM (inactive) and the GI50 [48] was 17.4 µM (inactive). The GI50 [49] was > 100 µM (inactive), the GI50 [50] was > 100 µM (inactive) and the GI50 [51] was > 100 µM (inactive). The GI50 [52] was > 100 µM (inactive), the GI50 [53] was > 100 µM (inactive) and the GI50 [54] was 34.7 µM (inactive). For the same compound, the GI50 [55] was 26.2 µM (inactive) and the GI50 [56] was 25.3 µM (inactive).
